What was measured:
Experiment in all cases: MIC, broth microdilution (NCCLS)
Format in all cases: cell-based
[1] = test system: Streptococcus pneumoniae Stpn_Mef S 3427; details: Table 7, Strain ID L (Table 6): S. pneumoniae Stpn_Mef S 3427
Experimental: (§1) Strains. The bacterial isolates listed in Table 4 were cultivated from −70° C. frozen stocks by two consecutive overnight passages (P1, P2) at 35° C. on 5% blood agar (Remel, Lenexa, Kans.). Chocolate agar (Remel) is used for Haemophilus influenzae. H. influenzae and Streptococcus pneumoniae are incubated in 5-10% CO2
(§2) Drug Stock Preparation. To determine the amount of solvent to be used to give the desired final concentration, the formula “weight obtained in mg/final concentration in mg/ml” will be used. It will give the amount of solvent in ml needed to be added to give the desired concentration. For example, if 2.5 mg/ml is the desired concentration and the weight of compound is 13.7 mg, then the amount of solvent to be added is […]. Methanol is used as the solvent to dissolve the test compounds. Further dilution of stock is done in sterile, deionized water. Drug stocks are kept frozen at −70° C., protected from light.
(§3) Susceptibility Testing. MICs are determined by the broth microdilution method in accordance with the NCCLS guidelines. In brief, organism suspensions are adjusted to a 0.5 McFarland standard to yield a final inoculum between 3×10^5 and 7×10^5 CFU/ml. Drug dilutions and inocula are made in sterile, cation adjusted Mueller-Hinton Broth (CAMHB) (Remel) for all but S. pneumoniae [CAMHB with 2-5% lysed horse blood (Remel)] and H. influenzae [Haemophilus Test Medium (Remel)]. An inoculum volume of 100 μl is added to wells containing 100 μl of broth with 2-fold serial dilutions of drug. All inoculated microdilution trays are incubated in ambient air at 35° C. for 18-24 hours, except for S. pneumoniae, and H. influenzae (both at 5-10% CO2).
(§4) Following appropriate incubation, the MIC is determined and the MIC is defined as the lowest concentration of the drug that prevented visible growth.
(§5) Strains. The bacterial isolates listed in Table 8 were cultivated from −70° C. frozen stocks by two consecutive overnight passages (P1, P2) at 35° C. on 5% blood agar (Remel, Lenexa, Kans.). Chocolate agar (Remel) is used for Haemophilus influenzae. H. influenzae and Streptococcus pneumoniae are incubated in 5-10% CO2
(§6) Following appropriate incubation, the MIC is determined and the MIC is defined as the lowest concentration of the drug that prevented visible growth. […] Antibacterial activity of representative compounds of the invention were compared against telitromycin.

[2] = test system: Streptococcus pneumoniae Stpn_49619; details: Table 7, Strain ID F (Table 6): S. pneumoniae Stpn_49619
Experimental: as §1, §2, §3, §4, §5, §6

[3] = test system: Streptococcus pneumoniae Stpn_280-962; details: Table 7, Strain ID H (Table 6): S. pneumoniae Stpn_280-962
Experimental: as §1, §2, §3, §4, §5, §6

[4] = test system: Streptococcus pyogenes Stpy_8668; details: Table 7, Strain ID E (Table 6): S. pyogenes Stpy_8668
Experimental: as §1, §2, §3, §4, §5, §6

[5] = test system: Streptococcus pneumoniae Stpn_297-749; details: Table 7, Strain ID G (Table 6): S. pneumoniae Stpn_297-749
Experimental: as §1, §2, §3, §4, §5, §6

[6] = test system: Streptococcus pneumoniae Stpn_Erm S 4297; details: Table 7, Strain ID J (Table 6): S. pneumoniae Stpn_Erm S 4297
Experimental: as §1, §2, §3, §4, §5, §6

Measured: MIC

CC[C@H]1OC(=O)[C@H](C)C(=O)[C@H](C)[C@@H](OC2O[C@H](C)C[C@H](N(C)C)[C@H]2O)[C@@](C)(OC)C[C@@H](C)C(=O)[C@H](C)[C@H]2N(CCCCn3cnc4cccnc43)C(=O)O[C@]12CC (stereo partly drawn) [Example 14, (3aS,4R,7R,9R,10R,11S,13R,15R,15aR)-3a,4-DIETHYL-1-[4-(3H-IMIDAZO[4,5-B]PYRIDIN-3-YL)BUTYL]-11-METHOXY-7,9,11,13,15-PENTAMETHYL-2,6,8,14-TETRAOXOTETRADECAHYDRO-2H-OXACYCLOTETRADECINO[4,3-D][1,3]OXAZOL-10-YL-3,4,6-TRIDEOXY-3-(DIMETHYLAMINO)-D-XYLO-HEXOPYRANOSIDE]
not listed: [6]
=0.05: all other assays above

CC[C@H]1OC(=O)[C@H](C)C(=O)[C@H](C)[C@@H](OC2O[C@H](C)C[C@H](N(C)C)[C@H]2O)[C@@](C)(OC)C[C@@H](C)C(=O)[C@H](C)[C@H]2N(CCCCc3ccc4ccccc4n3)C(=O)O[C@]12CC (stereo partly drawn) [Example 18, (3aS,4R,7R,9R,10R,11S,13R,15R,15aR)-3a,4-diethyl-11-methoxy-7,9,11,13,15-pentamethyl-2,6,8,14-tetraoxo-1-(4-quinolin-2-ylbutyl)tetradecahydro-2H-oxacyclotetradecino[4,3-d][1,3]oxazol-10-yl-3,4,6-trideoxy-3-(dimethylamino)-D-xylo-hexopyranoside]
=0.05: [1] | [2] | [3] | [5]

CC[C@H]1OC(=O)[C@@](C)(F)C(=O)[C@H](C)[C@@H](OC2O[C@H](C)C[C@H](N(C)C)[C@H]2O)[C@@](C)(OC)C[C@@H](C)C(=O)[C@H](C)[C@H]2N(CCCCn3cnc(-c4ccc(C)nc4)c3)C(=O)O[C@]12CC (stereo partly drawn) [Example 30, (3aS,4R,7S,9R,10R,11S,13R,15R,15aR)-3a,4-diethyl-7-fluoro-11-methoxy-7,9,11,13,15-pentamethyl-1-{4-[4-(6-methylpyridin-3-yl)-1H-imidazol-1-yl]butyl}-2,6,8,14-tetraoxotetradecahydro-2H-oxacyclotetradecino[4,3-d][1,3]oxazol-10-yl 3,4,6-trideoxy-3-(dimethylamino)-D-xylo-hexopyranoside]
=0.05: [2] | [3] | [4] | [5]

CC[C@H]1OC(=O)[C@@](C)(F)C(=O)[C@H](C)[C@@H](OC2O[C@H](C)C[C@H](N(C)C)[C@H]2O)[C@@](C)(OC)C[C@@H](C)C(=O)[C@H](C)[C@H]2N(CCCC(C)(C)n3cnc(-c4cccnc4)c3)C(=O)O[C@]12CC (stereo partly drawn) [Example 32, (3aS,4R,7S,9R,10R,11S,13R,15R,15aR)-3a,4-diethyl-7-fluoro-11-methoxy-7,9,11,13,15-pentamethyl-1-[4-methyl-4-(4-pyridin-3-yl-1H-imidazol-1-yl)pentyl]-2,6,8,14-tetraoxotetradecahydro-2H-oxacyclotetradecino[4,3-d][1,3]oxazol-10-yl-3,4,6-trideoxy-3-(dimethylamino)-D-xylo-hexopyranoside]
not listed: [1]
=0.05: all other assays above

CC[C@H]1OC(=O)[C@H](C)C(=O)[C@H](C)[C@@H](OC2O[C@H](C)C[C@H](N(C)C)[C@H]2O)[C@@](C)(OC)C[C@@H](C)C(=O)[C@H](C)[C@H]2N(CCCC(C)(C)n3cnc4ncccc43)C(=O)O[C@]12CC (stereo partly drawn) [Example 37, (3aS,4R,7R,9R,10R,11S,13R,15R,15aR)-3a,4-diethyl-1-[4-(1H-imidazo[4,5-b]pyridin-1-yl)-4-methylpentyl]-11-methoxy-7,9,11,13,15-pentamethyl-2,6,8,14-tetraoxotetradecahydro-2H-oxacyclotetradecino[4,3-d][1,3]oxazol-10-yl-3,4,6-trideoxy-3-(dimethylamino)-D-xylo-hexopyranoside]
=0.05: [2] | [3] | [4] | [5]

CC[C@H]1OC(=O)[C@H](C)C(=O)[C@H](C)[C@@H](OC2O[C@H](C)C[C@H](N(C)C)[C@H]2O)[C@@](C)(OC)C[C@@H](C)C(=O)[C@H](C)[C@H]2N(CCCC(C)(C)n3cnc4cccnc43)C(=O)O[C@]12CC (stereo partly drawn) [Example 38, (3aS,4R,7R,9R,10R,11S,13R,15R,15aR)-3a,4-diethyl-1-[4-(3H-imidazo[4,5-b]pyridin-3-yl)-4-methylpentyl]-11-methoxy-7,9,11,13,15-pentamethyl-2,6,8,14-tetraoxotetradecahydro-2H-oxacyclotetradecino[4,3-d][1,3]oxazol-10-yl-3,4,6-trideoxy-3-(dimethylamino)-D-xylo-hexopyranoside]
=0.05: [2] | [3] | [4] | [5]

C=C[C@]12OC(=O)N(CCCCn3cnc(-c4cccnc4)c3)[C@@H]1[C@@H](C)C(=O)[C@H](C)C[C@](C)(OC)[C@H](OC1O[C@H](C)C[C@H](N(C)C)[C@H]1O)[C@@H](C)C(=O)[C@](C)(F)C(=O)O[C@@H]2CC (stereo partly drawn) [Example 49, (3aS,4R,7S,9R,10R,11S,13R,15R,15aR)-4-ethyl-7-fluoro-11-methoxy-7,9,11,13,15-pentamethyl-2,6,8,14-tetraoxo-1-[4-(4-pyridin-3-yl-1H-imidazol-1-yl)butyl]-3a-vinyltetradecahydro-1H-oxacyclotetradecino[4,3-d][1,3]oxazol-10-yl-3,4,6-trideoxy-3-(dimethylamino)-D-xylo-hexopyranoside]
=0.05: all assays above

C=C[C@]12OC(=O)N(CCCC(C)(C)n3cnc(-c4cccnc4)c3)[C@@H]1[C@@H](C)C(=O)[C@H](C)C[C@](C)(OC)[C@H](OC1O[C@H](C)C[C@H](N(C)C)[C@H]1O)[C@@H](C)C(=O)[C@@H](C)C(=O)O[C@@H]2CC (stereo partly drawn) [Example 50, (3aS,4R,7R,9R,10R,11S,13R,15R,15aR)-4-ethyl-11-methoxy-7,9,11,13,15-pentamethyl-1-[4-methyl-4-(4-pyridin-3-yl-1H-imidazol-1-yl)pentyl]-2,6,8,14-tetraoxo-3a-vinyltetradecahydro-1H-oxacyclotetradecino[4,3-d][1,3]oxazol-10-yl-3,4,6-trideoxy-3-(dimethylamino)-D-xylo-hexopyranoside]
not listed: [1]
=0.05: all other assays above

From US7332476B2, “Pyridyl substituted ketolide antibiotics” (Novartis AG, priority 2003, dated 2008)
